Test results: patent US11535630B2, “Apelin receptor (APJ) agonists and uses thereof” (Research Triangle Institute, priority 2015, dated 2022)
Where a name gives a salt, the structure may show the parent alone. Read-outs that look alike come from different tables or passages of the source.

Target: T1, apelin receptor (APJ) (Homo sapiens, UniProt P35414)
T1 sequence (P35414 1-380): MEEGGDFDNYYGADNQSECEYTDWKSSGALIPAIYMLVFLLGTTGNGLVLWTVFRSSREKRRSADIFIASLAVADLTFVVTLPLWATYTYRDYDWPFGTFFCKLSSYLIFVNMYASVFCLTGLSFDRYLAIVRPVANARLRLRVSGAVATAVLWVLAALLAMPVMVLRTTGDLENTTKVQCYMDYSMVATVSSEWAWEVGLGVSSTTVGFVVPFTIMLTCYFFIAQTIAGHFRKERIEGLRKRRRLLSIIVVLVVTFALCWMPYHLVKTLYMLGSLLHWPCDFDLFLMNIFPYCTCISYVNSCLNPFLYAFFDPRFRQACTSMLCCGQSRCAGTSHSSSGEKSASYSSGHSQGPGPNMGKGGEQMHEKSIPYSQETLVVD
Assay: In vitro apelin agonist activity (methods of Giddings et al., Apelin-13 as positive control)
Assay type: cell-based
Settings: in vitro apelin agonist activity, methods of Giddings et al., Apelin-13 as positive control
Text: Characterization of the Apelin Agonist Activity of the Compounds
1:39-47, the contents of which are hereby incorporated by reference in its entirety. Using the methods described in Giddings et al. and Apelin-13 as a positive control.

| Structure (SMILES) | EC50 (read-out: EC50 (nM) Ave) | EC50 (EC50 (nM) Ave) |
| --- | --- | --- |
| COc1cccc(OC)c1-c1cc(C(=O)N[C@@H](CCc2ccccc2)C(=O)O)nn1C1CCCC1 [compound 389, (2S)-2-{[1-cyclopentyl-5-(2,6-dimethoxyphenyl)-1H-pyrazol-3-yl]formamido}-4-phenylbutanoic acid] | > 10000 nM |  |
| O=C(N[C@@H](CCN1C(=O)CCCC1=O)Cc1nnn[nH]1)c1cc(-c2ccccc2C(F)(F)F)n(C2CCCC2)n1 [compound 655, 1-cyclopentyl-N-[(2S)-4-(2,6-dioxopiperidin-1-yl)-1-(1H-1,2,3,4-tetrazol-5-yl)butan-2-yl]-5-[2-(trifluoromethyl)phenyl]-1H-pyrazole-3-carboxamide] | 66 nM |  |
| CC(F)(F)c1ccccc1-c1cc(C(=O)N[C@@H](CCN2CCCCC2)CC(=O)NC2CCC2)nn1C1CCCC1 [compound 400, (3S)-N-cyclobutyl-3-({1-cyclopentyl-5-(2-(1,1-difluoroethyl)phenyl]-1H-pyrazol-3-yl]formamido)-5-(piperidin-1-yl)pentanamide] | 46 nM |  |
| CCCN(CCC)CC[C@@H](CC(=O)NC1CCC1)NC(=O)c1cc(-c2ccccc2C(F)(F)F)n(C2CCCC2)n1 [compound 492, (3S)-N-cyclobutyl-3-({1-cyclopentyl-5-[2-(trifluoromethyl)phenyl]-1H-pyrazol-3-yl}formamido)-5-(dipropylamino)pentanamide] | 36 nM |  |
| CCN(C(=O)c1cc(-c2c(F)cccc2OC)n(C2CCCC2)n1)[C@@H](CCN1CCCCC1)CC(=O)NC1CCC1 [compound 345, (3S)-N-cyclobutyl-3-{1-[1-cyclopentyl-5-(2-fluoro-6-methoxyphenyl)-1H-pyrazol-3-yl]-N-ethylformamido}-5-(piperidin-1-yl)pentanamide] | > 10000 nM |  |
| COc1cccc(OC)c1-c1cc(C(=O)N[C@@H](CCN2CCCCC2)CC(=O)NC(C)(C)C)nn1C1CCCC1 [compound 333, (3S)-N-tert-butyl-3-{[1-cyclopentyl-5-(2,6-dimethoxyphenyl)-1H-pyrazol-3-yl]formamido}-5-(piperidin-1-yl)pentanamide] | 2530 nM |  |
| COc1cccc(OC)c1-c1cc(C(=O)N[C@@H](CCc2ccccc2)CC(=O)O)nn1-c1ccc(F)cc1 [compound 299, (3S)-3-{[5-(2,6-dimethoxyphenyl)-1-(4-fluorophenyl)-1H-pyrazol-3-yl]formamido}-5-phenylpentanoic acid] | 2910 nM |  |
| COc1cccc(OC)c1-c1cc(C(=O)N[C@@H](/C=C/c2ccncc2)CC(=O)NC2CCC2)nn1C1CCCC1 [compound 419, (3R,4E)-N-cyclobutyl-3-{[1-cyclopentyl-5-(2,6-dimethoxyphenyl)-1H-pyrazol-3-yl]formamido}-5-(pyridin-4-yl)pent-4-enamide] | > 10000 nM |  |
| Cc1cc(C)n(CC[C@@H](CC(=O)N(C)c2nccs2)NC(=O)c2cc(-c3ccccc3C(F)(F)F)n(C3CCCC3)n2)n1 [compound 502, (3S)-3-({1-cyclopentyl-5-[2-(trifluoromethyl)phenyl]-1H-pyrazol-3-yl}formamido)-5-(3,5-dimethyl-1H-pyrazol-1-yl)-N-methyl-N-(1,3-thiazol-2-yl)pentanamide] | 77 nM |  |
| CC(c1nnn[nH]1)[C@H](CCN1CC2C(C1)C2(F)F)NC(=O)c1cc(-c2ccccc2C(F)(F)F)n(C2CCCC2)n1 (stereo partly drawn) [compound 637, 1-cyclopentyl-N-[(3S)-1-{6,6-difluoro-3-azabicyclo[3.1.0]hexan-3-yl}-4-(1H-1,2,3,4-tetrazol-5-yl)pentan-3-yl]-5-[2-(trifluoromethyl)phenyl]-1H-pyrazole-3-carboxamide] | 21 nM |  |
| COc1cccc(OC)c1-c1cc(C(=O)N[C@@H](CCC2CCCCC2)CC(=O)O)nn1C1CCCCCCC1 [compound 647, (3S)-5-cyclohexyl-3-{[1-cyclooctyl-5-(2,6-dimethoxyphenyl)-1H-pyrazol-3-yl]formamido}pentanoic acid] |  | > 10000 nM |
| CC(C)c1ccccc1-c1cc(C(=O)N[C@@H](CCN2CCCCC2)CC(=O)NC2CCC2)nn1C1CCCC1 [compound 397, (3S)-N-cyclobutyl-3-({1-cyclopentyl-5-[2-(propan-2-yl)phenyl]-1H-pyrazol-3-yl}formamido)-5-(piperidin-1-yl)pentanamide] | 140 nM |  |
| COc1cccc(OC)c1-c1cc(C(=O)N[C@@H](CCN2CCCCC2)Cc2nnn[nH]2)nn1C1CCCC1 [compound 364, 1-cyclopentyl-5-(2,6-dimethoxyphenyl)-N-[(2S)-4-(piperidin-1-yl)-1-(1H-1,2,3,4-tetrazol-5-yl)butan-2-yl]-1H-pyrazole-3-carboxamide] | 235 nM |  |
| COc1cccc(OC)c1-c1cc(C(=O)N[C@@H](CCNCc2ccncc2)CC(=O)O)nn1C1CCCC1 [compound 310, (3S)-3-{[1-cyclopentyl-5-(2,6-dimethoxyphenyl)-1H-pyrazol-3-yl]formamido}-5-[(pyridin-4-ylmethyl)amino]pentanoic acid] | > 10000 nM |  |
| O=C(C[C@H](CN1CCCC(F)(F)C1)NC(=O)c1cc(-c2ccccc2C(F)(F)F)n(C2CCCC2)n1)NC1CCC1 [compound 524, (3R)-N-cyclobutyl-3-({1-cyclopentyl-5-[2-(trifluoromethyl)phenyl]-1H-pyrazol-3-yl]formamido)-4-(3,3-difluoropiperidin-1-yl)butanamide] |  | 910 nM |

More lines, main results first:

| EC50 (read-out: EC50 (nM) Ave) | Structure (SMILES) | EC50 (EC50 (nM) Ave) |
| --- | --- | --- |
| 104 nM | CC1(F)CCCN(CC[C@@H](CC(=O)O)NC(=O)c2cc(-c3ccccc3C(F)(F)F)n(C3CCCC3)n2)C1 (stereo partly drawn) [compound 613, (3S)-3-({1-cyclopentyl-5-[2-(trifluoromethyl)phenyl]-1H-pyrazol-3-yl}formamido)-5-(3-fluoro-3-methylpiperidin-1-yl)pentanoic acid trifluoroacetate] |  |
| 46 nM | O=C(O)C[C@H](CCN1CC2C(C1)C2(F)F)NC(=O)c1cc(-c2ccccc2C(F)(F)F)n(C2CCCC2)n1 (stereo partly drawn) [compound 603, (3S)-3-({1-cyclopentyl-5-[2-(trifluoromethyl)phenyl]-1H-pyrazol-3-yl}formamido)-5-{6,6-difluoro-3-azabicyclo[3.1.0]hexan-3-yl}pentanoic acid] |  |
| 23 nM | C[C@@H](C(=O)O)[C@H](CCN1CCCC(F)(F)C1)NC(=O)c1cc(-c2ccccc2C(F)(F)F)n(C2CCCC2)n1 [compound 597, (2R,3S)-3-({1-cyclopentyl-5-[2-(trifluoromethyl)phenyl]-1H-pyrazol-3-yl}formamido)-5-(3,3-difluoropiperidin-1-yl)-2-methylpentanoic acid] |  |
| 255 nM | O=C(O)C[C@H](CCNC1CC(F)(F)C1)NC(=O)c1cc(-c2ccccc2C(F)(F)F)n(C2CCCC2)n1 [compound 548, (3S)-3-({1-cyclopentyl-5-[2-(trifluoromethyl)phenyl]-1H-pyrazol-3-yl}formamido)-5-[(3,3-difluorocyclobutyl)amino]pentanoic acid] |  |
| 27 nM | CN(C(=O)C[C@H](CCN1CCCC(F)(F)C1)NC(=O)c1cc(-c2ccccc2C(F)(F)F)n(C2CCCC2)n1)c1ncco1 [compound 451, (3S)-3-({1-cyclopentyl-5-[2-(trifluoromethyl)phenyl]-1H-pyrazol-3-yl}formamido)-5-(3,3-difluoropiperidin-1-yl)-N-methyl-N-(1,3-oxazol-2-yl)pentanamide] |  |
| 98 nM | CC1(F)CCN(CC[C@@H](CC(=O)O)NC(=O)c2cc(-c3ccccc3C(F)(F)F)n(C3CCCC3)n2)C1 (stereo partly drawn) [compound 609, (3S)-3-({1-cyclopentyl-5-[2-(trifluoromethyl)phenyl]-1H-pyrazol-3-yl}formamido)-5-(3-fluoro-3-methylpyrrolidin-1-yl)pentanoic acid] |  |
| 140 nM | CC(C[C@@H](CC(=O)O)NC(=O)c1cc(-c2ccccc2C(C)(F)F)n(C2CCCC2)n1)N1C[C@H](F)[C@@H](F)C1 (stereo partly drawn) [compound 595] |  |
| 128 nM | O=C(O)C[C@H](CCN1CC(C(F)(F)F)C1)NC(=O)c1cc(-c2ccccc2C(F)(F)F)n(C2CCCC2)n1 [compound 601, (3S)-3-({1-cyclopentyl-5-[2-(trifluoromethyl)phenyl]-1H-pyrazol-3-yl]formamido)-543-(trifluoromethypazetidin-1-yl]pentanoic acid] |  |
| 7.5 nM | CC(F)(F)c1ccccc1-c1cc(C(=O)N[C@@H](CCN2CCCC(F)(F)C2)CC(=O)Nc2nccs2)nn1C1CCCC1 [compound 428, (3S)-3-({1-cyclopentyl-5-[2-(1,1-difluoroethyl)phenyl]-1H-pyrazol-3-yl}formamido)-5-(3,3-difluoropiperidin-1-yl)-N-(1,3-thiazol-2-yl)pentanamide] |  |
| 1870 nM | O=C(O)C[C@@H](CCN1CCCC(F)(F)C1)NC(=O)c1cc(-c2ccccc2C(F)(F)F)n(C2CCCC2)n1 [compound 579, (3R)-3-({1-cyclopentyl-5-[2-(trifluoromethyl)phenyl]-1H-pyrazol-3-yl}formamido)-5-(3,3-difluoropiperidin-1-yl)pentanoic acid] |  |
| 69 nM | CC1CCC(F)(F)CN1CC[C@@H](CC(=O)O)NC(=O)c1cc(-c2ccccc2C(C)(F)F)n(C2CCCC2)n1 (stereo partly drawn) [compound 607, (3S)-3-({1-cyclopentyl-5-[2-(1,1-difluoroethyl)phenyl]-1H-pyrazol-3-yl}formamido)-5-(5,5-difluoro-2-methylpiperidin-1-yl)pentanoic acid] |  |
| 165 nM | CN(C(=O)C[C@H](CCN1CCOCC1)NC(=O)c1cc(-c2ccccc2C(F)(F)F)n(C2CCCC2)n1)c1nccs1 [compound 495, (3S)-3-({1-cyclopentyl-5-[2-(trifluoromethyl)phenyl]-1H-pyrazol-3-yl}formamido)-N-methyl-5-(morpholin-4-yl)-N-(1,3-thiazol-2-yl)pentanamide] |  |
